The values below come from PMC9562188, “Characterization of the Aquaporin-9 Inhibitor RG100204 In Vitro and in db/db Mice” (Cells, 2022).

The term IC50 denotes the concentration at which inhibition is half-maximal.

Molecules are shown by their SMILES.

The experiment deals with T1, Aquaporin-9 (AQP9) (Homo sapiens, UniProt O43315).
T1 construct: 10×His-hAQP9 (N-terminal 10-histidine tag), purified from P. pastoris, reconstituted in proteoliposomes
T1 sequence (O43315 1-295): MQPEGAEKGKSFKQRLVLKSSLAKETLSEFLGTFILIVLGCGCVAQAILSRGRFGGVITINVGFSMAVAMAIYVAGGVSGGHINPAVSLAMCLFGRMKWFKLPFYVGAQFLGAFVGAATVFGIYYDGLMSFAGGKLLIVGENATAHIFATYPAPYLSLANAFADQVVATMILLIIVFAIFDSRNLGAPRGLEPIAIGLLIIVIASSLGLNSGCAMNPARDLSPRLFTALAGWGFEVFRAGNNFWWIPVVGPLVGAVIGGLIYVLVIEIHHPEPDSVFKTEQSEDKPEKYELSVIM
Nature of the experiment: stopped-flow light scattering of purified AQP9 proteoliposomes ([…], −[…] Pgly); IC50 (water permeability; glycerol […]) from calcein quenching in human AQP9-expressing CHO cells. It counts as cell-based.

With `O=C(CCc1ccc(O)cc1)c1c(O)cc(O)cc1O` [phlor, phloretin], the IC50 is roughly 200 nM.
